Active and inactive are the calls of the source. Some results are limits rather than exact numbers.

By IC50 is commonly meant the concentration that inhibits the measured activity by half. Usually Ki stands for a dissociation constant, usually derived from enzyme kinetics or from competition with a known ligand. Read a low Ki as a stronger hold on the target. A word on the bioavailability: it is dose-corrected exposure relative to a reference, in per cent. A low value points to poor availability. Usually half-life stands for the time needed for the level to fall by half in the phase considered. Usually AUC stands for the area under the concentration-time curve, a measure of exposure. The term Cmax denotes the peak of the concentration-time curve. Broadly, the Kp is tissue or fluid exposure divided by exposure in the circulation.

Series [1] concerns the target T1, Orexin/Hypocretin receptor type 1 (Homo sapiens, UniProt O43613).
T1 sequence (O43613 whole entry): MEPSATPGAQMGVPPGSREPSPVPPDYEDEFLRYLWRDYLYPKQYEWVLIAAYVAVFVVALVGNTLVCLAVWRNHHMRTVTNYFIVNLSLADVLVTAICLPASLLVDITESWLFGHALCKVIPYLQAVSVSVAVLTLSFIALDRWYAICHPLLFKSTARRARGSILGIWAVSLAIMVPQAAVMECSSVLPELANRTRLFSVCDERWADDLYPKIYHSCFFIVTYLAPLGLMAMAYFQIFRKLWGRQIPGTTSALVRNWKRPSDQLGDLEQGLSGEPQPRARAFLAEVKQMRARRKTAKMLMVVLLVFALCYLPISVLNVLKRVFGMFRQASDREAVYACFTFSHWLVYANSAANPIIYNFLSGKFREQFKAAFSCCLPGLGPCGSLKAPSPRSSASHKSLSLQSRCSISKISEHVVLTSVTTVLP
Briefly: Antagonist activity at OX1R by FLIPR assay. It is filed as functional.

The target in series [2] is T2, Orexin receptor type 2 (Homo sapiens, UniProt O43614).
T2 sequence (O43614 whole entry): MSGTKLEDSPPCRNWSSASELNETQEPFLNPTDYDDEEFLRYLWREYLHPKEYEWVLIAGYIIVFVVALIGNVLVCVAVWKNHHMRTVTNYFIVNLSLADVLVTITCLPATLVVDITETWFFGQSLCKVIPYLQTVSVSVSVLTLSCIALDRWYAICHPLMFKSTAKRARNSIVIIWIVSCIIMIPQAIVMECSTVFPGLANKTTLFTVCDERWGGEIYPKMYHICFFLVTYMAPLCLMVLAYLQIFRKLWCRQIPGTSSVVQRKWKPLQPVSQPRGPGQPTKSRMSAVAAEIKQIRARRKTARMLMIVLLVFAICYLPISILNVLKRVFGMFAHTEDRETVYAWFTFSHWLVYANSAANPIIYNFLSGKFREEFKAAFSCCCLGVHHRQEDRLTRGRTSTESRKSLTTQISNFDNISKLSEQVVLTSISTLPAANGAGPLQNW
Briefly: Antagonist activity at OX2R by FLIPR assay. It is filed as functional.

For series [3], the target named is T1, Orexin/Hypocretin receptor type 1. As to the kind of experiment: Binding affinity to OX1R.
The target in series [4] is T2, Orexin receptor type 2. As to the kind of experiment: Binding affinity to OX2R.
Series [5] in a line: Oral bioavailability in dog at 3 mg/kg. It is filed as ADME, organism-based, Canis lupus familiaris. The note with it: in vivo.
A short description of series [6]: Clearance in dog at 3 mg/kg, po and 0.125 mg/kg, iv. It is filed as ADME, organism-based, Canis lupus familiaris. The following applies: in vivo.
Series [7] is described as follows: Half life in dog at 3 mg/kg, po and 0.125 mg/kg, iv. The note with it: in vivo. It is filed as ADME, organism-based, Canis lupus familiaris.
The test system of the next series is Canis familiaris. As to the kind of experiment: AUC (0 to 24 hrs) in dog at 3 mg/kg, po and 0.125 mg/kg, iv. It is filed as ADME, organism-based, Canis lupus familiaris, Plasma. The note with it: in vivo.
Series [8] can be described thus: Cmax in dog at 3 mg/kg, po and 0.125 mg/kg, iv. It is filed as ADME, organism-based, Canis lupus familiaris. The following applies: in vivo.
Series [9] is described as follows: Oral bioavailability in Sprague-Dawley rat at 10 mg/kg. The following applies: in vivo. It is filed as ADME, organism-based.
Series [10] can be described thus: Clearance in Sprague-Dawley rat at 10 mg/kg, po and 2 mg/kg, iv. Format: ADME, organism-based. The note with it: in vivo.
Series [11] is described as follows: Half life in Sprague-Dawley rat at 10 mg/kg, po and 2 mg/kg, iv. The note with it: in vivo. Format: ADME, organism-based.
The test system of series [12] is Rattus norvegicus. As to the kind of experiment: AUC (0 to 24 hrs) in Sprague-Dawley rat at 10 mg/kg, po and 2 mg/kg, iv. It is filed as ADME, organism-based, Plasma. The note with it: in vivo.
Series [13] can be described thus: Cmax in Sprague-Dawley rat at 10 mg/kg, po and 2 mg/kg, iv. Format: ADME, organism-based. The following applies: in vivo.
Series [14] in a line: Drug level in Sprague-Dawley rat plasma at 10 mg/kg after 2 hrs. It is filed as ADME, organism-based. Further details: dose 10 mg/kg. The following applies: read-out: Drug uptake.
Series [15] is described as follows: Drug level in Sprague-Dawley rat plasma at 30 mg/kg after 2 hrs. It is filed as ADME, organism-based. More on the design: dose 30 mg/kg. The following applies: read-out: Drug uptake.
The nature of series [16]: Drug level in Sprague-Dawley rat plasma at 60 mg/kg after 1 hr. It is filed as ADME, organism-based. Further details: dose 60 mg/kg. The note with it: read-out: Drug uptake.
Series [17] is described as follows: Drug level in Sprague-Dawley rat plasma at 100 mg/kg after 2 hrs administered in PEG400. Format: ADME, organism-based. Further details: dose 100 mg/kg. The note with it: read-out: Drug uptake.
Series [18] is described as follows: Drug level in Sprague-Dawley rat CSF at 10 mg/kg after 2 hrs. It is filed as ADME, organism-based, Cerebrospinal fluid. Further details: dose 10 mg/kg. The note with it: read-out: Drug uptake.
A short description of series [19]: Drug level in Sprague-Dawley rat CSF at 30 mg/kg after 2 hrs. Format: ADME, organism-based, Cerebrospinal fluid. More on the design: dose 30 mg/kg. The note with it: read-out: Drug uptake.
The nature of series [20]: Drug level in Sprague-Dawley rat CSF at 60 mg/kg after 1 hr. It is filed as ADME, organism-based, Cerebrospinal fluid. More on the design: dose 60 mg/kg. The following applies: read-out: Drug uptake.
Series [21] in a line: Ratio of drug level in CSF to plasma in Sprague-Dawley rat at 10 mg/kg after 2 hrs. More on the design: dose 10 mg/kg. Format: ADME, organism-based.
Series [22] is described as follows: Ratio of drug level in CSF to plasma in Sprague-Dawley rat at 30 mg/kg after 2 hrs. It is filed as ADME, organism-based. Further details: dose 30 mg/kg.
A short description of series [23]: Ratio of drug level in CSF to plasma in Sprague-Dawley rat at 60 mg/kg after 1 hr. Format: ADME, organism-based. More on the design: dose 60 mg/kg.
For series [24], the system named is Rattus norvegicus. As to the kind of experiment: Effect on sleep-awake pattern in rat assessed as increase in REM sleep at 60 mg/kg/day, po. Format: functional, organism-based.
Series [25] deals with Rattus norvegicus. Briefly: Effect on sleep-awake pattern in rat assessed as decrease in wakefulness at 60 mg/kg/day, po. It is filed as functional, organism-based.
Series [26] relates to Rattus norvegicus. As to the kind of experiment: Effect on sleep-awake pattern in rat assessed as increase in […] at 60 mg/kg/day, po. Format: functional, organism-based.

`Cc1ccc(-n2nccn2)c(C(=O)N2C3CCC2CN(c2ncc4ccc(F)cc4n2)CC3)c1` (single isomer, unassigned; 8a) [listing 1 of 2 here]: the figures for the IC50 (in series [1]; against Orexin receptor type 2 [2]) were 98 nM and 136 nM, respectively. Further, the Ki in [3] was 0.6 nM; at Orexin receptor type 2 [4] it was 0.4 nM. Also, the bioavailability was 100% in series [5] and 14% in [9]. Also, the clearance in [6] worked out at 3.6 mL/min/kg; in series [10], 23 mL/min/kg. In addition, the values for the half-life in series [7] and in series [11] were 1.8 h and 1 h, respectively. In addition, the AUC worked out at 14.1 µM·h in the series with Canis familiaris and 1.57 µM·h with Rattus norvegicus [12]. For the same compound, the figures for the maximum concentration (Cmax) in [8] and in series [13] were 3400 nM and 570 nM, respectively. The concentration at 2 h in [14] was found to be 1100 nM; in series [15] it was 3100 nM; in series [17], 12500 nM; in series [18] it was 3 nM; in series [19], 23 nM. The concentration at 1 h is 14600 nM in series [16] and 170 nM in series [20]. The Kp at 2 h is 0.004 in [21] and 0.007 in series [22]. In addition, the Kp at 1 h in series [23] turned out to be 0.011.

In the case of `O=C(c1cc(Cl)ccc1-n1nccn1)N1C[C@@H]2C[C@H](C1)N(c1ncc3cc(F)ccc3n1)C2`, the values for the Ki (in series [3]; at Orexin receptor type 2 [4]) were 0.4 nM and 0.6 nM, respectively.

For `Cc1ccc(-n2nccn2)c(C(=O)N2C[C@H]3CC[C@@H]2CCN3c2ncc3ccc(F)cc3n2)c1`, the IC50 in series [1] amounted to 125 nM; on Orexin receptor type 2 [2], 140 nM. Moreover, the results for the Ki (in series [3]; at Orexin receptor type 2 [4]) were 0.6 nM and 2.2 nM, respectively.

For `Cc1ccc(-n2nccn2)c(C(=O)N2CC[C@H]3CC[C@@H]2CN3c2ncc3ccc(F)cc3n2)c1`, the half-maximal inhibitory concentration (IC50) in series [1] is 1600 nM; against Orexin receptor type 2 [2], greater than 10000 nM. Further, the Ki was 345 nM in series [3] and 590 nM at Orexin receptor type 2 [4].

With `Cc1ccc(-n2nccn2)c(C(=O)N2CCC3CCC(C2)N3c2ncc3ccc(F)cc3n2)c1` (racemic), the IC50 in series [1] was 72 nM; against Orexin receptor type 2 [2], 175 nM. Besides, the Ki in [3] amounted to 0.9 nM; on Orexin receptor type 2 [4], 0.8 nM.

Consider `Cc1ccc(-n2nccn2)c(C(=O)N2C3CCC2CN(c2ncc4ccc(F)cc4n2)CC3)c1` (single isomer, unassigned; 8a) [listing 2 of 2 here], for which the outcome with Rattus norvegicus [24], in the series with Rattus norvegicus [25] and in the series on Rattus norvegicus [26] was Active.

As to `Cc1ccc(-n2nccn2)c(C(=O)N2CCCN(c3ncc4ccccc4n3)CC2)c1`, the clearance in [6] was found to be 12 mL/min/kg. Besides, the AUC with Canis familiaris was 0.44 µM·h; in the series on Rattus norvegicus [12] it was 0.19 µM·h.

`Cc1ccc(-n2nccn2)c(C(=O)N2C[C@@H]3CC[C@H]2CN(c2ncc4ccc(F)cc4n2)C3)c1` (single isomer, unassigned): the IC50 came out at 46 nM in series [1] and 790 nM at Orexin receptor type 2 [2]. In addition, the Ki came out at 2 nM in series [3] and 62 nM on Orexin receptor type 2 [4].

Consider `Cc1ccc(-n2nccn2)c(C(=O)N2CC[C@@H]3CC[C@H]2CN3c2ncc3ccc(F)cc3n2)c1`, for which the IC50 in series [1] was determined as 2300 nM; against Orexin receptor type 2 [2] it was 1450 nM. For the same compound, the Ki was determined as 160 nM in series [3] and 105 nM on Orexin receptor type 2 [4].

With `Cc1ccc(-n2nccn2)c(C(=O)N2C3CCC2CN(c2ncc4ccc(F)cc4n2)CC3)c1` (single isomer, unassigned; 8b), the IC50 in series [1] stood at 99 nM; on Orexin receptor type 2 [2] it was 150 nM. For the same compound, the Ki in series [3] is 3.7 nM; at Orexin receptor type 2 [4], 6.7 nM.

With `Cc1ccc(-n2nccn2)c(C(=O)N2C[C@@H]3CC[C@H]2CCN3c2ncc3ccc(F)cc3n2)c1`, the results for the IC50 (in series [1]; against Orexin receptor type 2 [2]) were 800 nM and 740 nM, respectively. Also, the figures for the Ki (in [3]; at Orexin receptor type 2 [4]) were 7.6 nM and 14 nM, respectively.

For `Cc1ccc(-n2nccn2)c(C(=O)N2C[C@H]3CC[C@@H]2CN(c2ncc4ccc(F)cc4n2)C3)c1` (single isomer, unassigned), the IC50 in series [1] came out at 104 nM; against Orexin receptor type 2 [2] it was 370 nM. The Ki in series [3] was 10 nM; on Orexin receptor type 2 [4], 2.9 nM.
